Measured values as given in patent US11272709B2, “Amidine substituted benzoyl derivatives useful as herbicides” (Syngenta Participations AG, priority 2018, dated 2022).

Columns and labels:
Type in all cases: in vivo
Details in all cases: evaluated after 13 days
[1] = test system: Echinochloa crus-galli (ECHCG); assay: Post-emergence herbicidal glasshouse test, Echinochloa crus-galli (ECHCG)
In short: (§1)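 Plants sprayed 1 day (pre-emergence) or 8 days (post-emergence) after sowing, at 500 g/h unless indicated, in acetone/water (50:50) with 0.5% Tween 20. Glasshouse 24/16 °C, 14 h light, 65% humidity. Damage scored at 13 days on a five-point scale (5=80-100% to 1=0-19%).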

[2] = test system: Amaranthus retoflexus (AMARE); assay: Post-emergence herbicidal glasshouse test, Amaranthus retoflexus (AMARE)
In short: as §1

[3] = test system: Echinochloa crus-galli (ECHCG); assay: Pre-emergence herbicidal glasshouse test, Echinochloa crus-galli (ECHCG)
In short: as §1

[4] = test system: Ipomoea hederacea (IPOHE); assay: Post-emergence herbicidal glasshouse test, Ipomoea hederacea (IPOHE)
In short: as §1

Setaria faberi (SETFA) [5] = assay: Post-emergence herbicidal glasshouse test, Setaria faberi (SETFA)
In short: as §1

[6] = test system: Ipomoea hederacea (IPOHE); assay: Pre-emergence herbicidal glasshouse test, Ipomoea hederacea (IPOHE)
In short: as §1

Setaria faberi (SETFA) [7] = assay: Pre-emergence herbicidal glasshouse test, Setaria faberi (SETFA)
In short: as §1

[8] = test system: Abutilon theophrasti (ABUTH); assay: Pre-emergence herbicidal glasshouse test, Abutilon theophrasti (ABUTH)
In short: as §1

[9] = test system: Amaranthus retoflexus (AMARE); assay: Pre-emergence herbicidal glasshouse test, Amaranthus retoflexus (AMARE)
In short: as §1

[10] = test system: Abutilon theophrasti (ABUTH); assay: Post-emergence herbicidal glasshouse test, Abutilon theophrasti (ABUTH)
In short: as §1

| Compound | POST Application ECHCG, percentage damage (five point scale) ([1]; 500 g/h) | POST Application AMARE, percentage damage (five point scale) ([2]; 500 g/h) | PRE Application ECHCG, percentage damage (five point scale) ([3]; 500 g/h) | POST Application IPOHE, percentage damage (five point scale) ([4]; 500 g/h) | POST Application SETFA, percentage damage (five point scale) (Setaria faberi (SETFA) [5]; 500 g/h) | PRE Application IPOHE, percentage damage (five point scale) ([6]; 500 g/h) | PRE Application SETFA, percentage damage (five point scale) (Setaria faberi (SETFA) [7]; 500 g/h) | PRE Application ABUTH, percentage damage (five point scale) ([8]; 500 g/h) | PRE Application AMARE, percentage damage (five point scale) ([9]; 500 g/h) | POST Application ABUTH, percentage damage (five point scale) ([10]; 500 g/h) | POST Application ECHCG, percentage damage (five point scale) ([1]; applied at 250 g/ha) | POST Application AMARE, percentage damage (five point scale) ([2]; applied at 250 g/ha) | PRE Application ECHCG, percentage damage (five point scale) ([3]; applied at 250 g/ha) | POST Application IPOHE, percentage damage (five point scale) ([4]; applied at 250 g/ha) | POST Application SETFA, percentage damage (five point scale) (Setaria faberi (SETFA) [5]; applied at 250 g/ha) | PRE Application IPOHE, percentage damage (five point scale) ([6]; applied at 250 g/ha) | PRE Application SETFA, percentage damage (five point scale) (Setaria faberi (SETFA) [7]; applied at 250 g/ha) | PRE Application ABUTH, percentage damage (five point scale) ([8]; applied at 250 g/ha) | PRE Application AMARE, percentage damage (five point scale) ([9]; applied at 250 g/ha) | POST Application ABUTH, percentage damage (five point scale) ([10]; applied at 250 g/ha) |
| --- | --- | --- | --- | --- | --- | --- | --- | --- | --- | --- | --- | --- | --- | --- | --- | --- | --- | --- | --- | --- |
| CCN(C=Nc1c(C(F)(F)F)ccc(C(=O)Nc2nnc(C)o2)c1Cl)CC [Compound 2.055] | 5 (5=80-100%) | 5 (5=80-100%) | 5 (5=80-100%) | 4 (4=60-79%) | 5 (5=80-100%) | 5 (5=80-100%) | 5 (5=80-100%) | 5 (5=80-100%) | 5 (5=80-100%) | 4 (4=60-79%) |  |  |  |  |  |  |  |  |  |  |
| CC(=NOCc1c(S(C)(=O)=O)ccc(C(=O)Nc2nnc(C)o2)c1Cl)N(C)C [Compound 2.129] | 5 (5=80-100%) | 5 (5=80-100%) | 3 (3=40-59%) | 5 (5=80-100%) | 5 (5=80-100%) | 2 (2=20-39%) | 3 (3=40-59%) | 5 (5=80-100%) | 5 (5=80-100%) | 5 (5=80-100%) |  |  |  |  |  |  |  |  |  |  |
| Cc1nnc(NC(=O)c2ccc(C(F)(F)F)c(N=CN(C)c3ccccc3)c2Cl)o1 [Compound 2.131] | 5 (5=80-100%) | 5 (5=80-100%) | 5 (5=80-100%) | 3 (3=40-59%) | 5 (5=80-100%) | 2 (2=20-39%) | 5 (5=80-100%) | 3 (3=40-59%) | 5 (5=80-100%) | 4 (4=60-79%) |  |  |  |  |  |  |  |  |  |  |
| Cc1nnc(NC(=O)c2ccc(C(F)(F)F)c(N=CN3CCCC3)c2Cl)o1 [Compound 2.132] | 5 (5=80-100%) | 5 (5=80-100%) | 5 (5=80-100%) | 5 (5=80-100%) | 5 (5=80-100%) | 5 (5=80-100%) | 5 (5=80-100%) | 5 (5=80-100%) | 5 (5=80-100%) | 5 (5=80-100%) |  |  |  |  |  |  |  |  |  |  |
| Cc1nnc(NC(=O)c2ccc(C(F)(F)F)c(N=CN(C)C(C)C)c2Cl)o1 [Compound 2.140] | 5 (5=80-100%) | 5 (5=80-100%) | 5 (5=80-100%) | 4 (4=60-79%) | 5 (5=80-100%) | 4 (4=60-79%) | 5 (5=80-100%) | 5 (5=80-100%) | 5 (5=80-100%) | 5 (5=80-100%) |  |  |  |  |  |  |  |  |  |  |
| Cc1nnc(NC(=O)c2ccc(S(C)(=O)=O)c(N=CN(C)CC(F)(F)F)c2Cl)o1 [Compound 2.142] |  |  |  |  |  |  |  |  |  |  | 5 (5=80-100%) | 5 (5=80-100%) | 5 (5=80-100%) | 5 (5=80-100%) | 5 (5=80-100%) | 1 (1=0-19%) | 5 (5=80-100%) | 3 (3=40-59%) | 5 (5=80-100%) | 5 (5=80-100%) |
| Cc1nnc(NC(=O)c2ccc(S(C)(=O)=O)c(N=CN(C)CC(F)(F)F)c2C)o1 [Compound 2.143] | 5 (5=80-100%) | 5 (5=80-100%) | 5 (5=80-100%) | 5 (5=80-100%) | 5 (5=80-100%) | 5 (5=80-100%) | 5 (5=80-100%) | 5 (5=80-100%) | 5 (5=80-100%) | 5 (5=80-100%) |  |  |  |  |  |  |  |  |  |  |
| Cc1nnc(NC(=O)c2ccc(S(C)(=O)=O)c(N=CN(C)C(C)C)c2C)o1 [Compound 2.144] | 5 (5=80-100%) | 5 (5=80-100%) | 5 (5=80-100%) | 4 (4=60-79%) | 5 (5=80-100%) | 3 (3=40-59%) | 5 (5=80-100%) | 5 (5=80-100%) | 5 (5=80-100%) | 5 (5=80-100%) |  |  |  |  |  |  |  |  |  |  |
| CC(=Nc1c(C(F)(F)F)ccc(C(=O)Nc2nnc(C)o2)c1Cl)N(C)C [Compound 2.148] | 5 (5=80-100%) | 5 (5=80-100%) | 5 (5=80-100%) | 3 (3=40-59%) | 5 (5=80-100%) | 5 (5=80-100%) | 5 (5=80-100%) | 5 (5=80-100%) | 5 (5=80-100%) | 5 (5=80-100%) |  |  |  |  |  |  |  |  |  |  |
| Cc1c(C(=O)C2=C(O)CCCC2=O)ccc(C(F)(F)F)c1N=CN(C)C [Compound 3.017] | 5 (5=80-100%) | 3 (3=40-59%) | 5 (5=80-100%) | 5 (5=80-100%) | 5 (5=80-100%) | 5 (5=80-100%) | 4 (4=60-79%) | 5 (5=80-100%) | 5 (5=80-100%) | 5 (5=80-100%) |  |  |  |  |  |  |  |  |  |  |
